Measurements taken from patent US8034822B2, “Glucokinase activators” (Takeda San Diego, Inc., priority 2006, dated 2011).
pEC50: −log10 of the molar value.

Each molecule was assayed against T1, glucokinase (GK) (Homo sapiens, UniProt P35557) (assay: enzymatic glucokinase activity assay (ATP consumption, KinaseGlo luminescence)). Settings: Against GK; Kact = concentration giving 50% of maximal increase in GK activity; 5 μM ATP, 5 mM Glucose, 60 min room temperature; values given as bins; read-out: pKact.
T1 construct: I.D. No. 1 corresponds to residues 12-465 of glucokinase; made in house; host or cells: E. coli DH10b-T1r, pFLAG-CTC plasmid
T1 sequence (P35557 with tags, fused parts or gaps isoform P35557-2): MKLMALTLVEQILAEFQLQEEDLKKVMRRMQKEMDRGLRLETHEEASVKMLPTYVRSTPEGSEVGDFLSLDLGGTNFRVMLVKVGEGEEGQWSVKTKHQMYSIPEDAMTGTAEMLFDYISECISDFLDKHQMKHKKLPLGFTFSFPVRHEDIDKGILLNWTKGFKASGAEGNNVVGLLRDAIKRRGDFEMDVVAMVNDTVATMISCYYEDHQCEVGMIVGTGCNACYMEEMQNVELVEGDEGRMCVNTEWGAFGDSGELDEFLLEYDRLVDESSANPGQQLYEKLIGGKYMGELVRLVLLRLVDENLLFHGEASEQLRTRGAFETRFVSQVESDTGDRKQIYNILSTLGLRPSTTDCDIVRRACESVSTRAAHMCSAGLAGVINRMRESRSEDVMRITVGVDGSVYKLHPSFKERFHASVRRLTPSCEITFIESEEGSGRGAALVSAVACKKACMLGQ
Format: biochemical
Excerpt: The activity of compounds as glucokinase activators may be assayed in vitro, in vivo or in a cell line. Provided below is an enzymatic glucokinase activity assay.
Purified glucokinase may be obtained as follows. DNA encoding residues 12-465 of the full-length sequence of the human enzyme may be amplified by PCR and cloned into the HindIII and EcoRI sites of pFLAG-CTC (Sigma). SEQ. I.D. No. 1 corresponds to residues 12-465 of glucokinase.
The expression of recombinant glucokinase protein may be carried out by transformation and growth of DH10b-T1r E. coli cells incorporating the (pFLAG-CTC) plasmid in LB media. Protein expression can be induced in this system by the addition of IPTG to the culture medium.
Recombinant protein may be isolated from cellular extracts by passage over Sepharose Q Fast Flow resin (Pharmacia). This partially purified GK extract may then be further purified by a second passage over Poros HQ10 (Applied Biosystems). The purity of GK may be determined on denaturing SDS-PAGE gel. Purified GK may then be concentrated to a final concentration of 20.0 mg/ml. After flash freezing in liquid nitrogen, the proteins can be stored at −78° C. in a buffer containing 25 mM TRIS-HCl pH 7.6, 50 mM NaCl, and 0.5 mM TCEP.
The activation properties of compounds for GK may be determined using a black 384-well-plate format under the following reaction conditions: 25 mM Hepes pH 7.2, 25 mM NaCl, 10 mM MgCl2, 0.01% Brij35, 1 mM DTT, 5 μM ATP, 5 mM Glucose 2% DMSO. The amount of ATP consumed may be determined quantitatively by addition of equal volume of luciferase reagent (luciferase+beetle luciferin—KinaseGlo Luminescent Kinase Assay kit from Promega). The luminescence intensity may be measured by using the Analyst HT from LJL Biosystems.
The assay reaction may be initiated as follows: 4 μl of substrate mixture (12.5 μM ATP and 12.5 mM Glucose) was added to each well of the plate, followed by the addition of 2 μl of activator (2 fold serial dilutions for 11 data points for each activator) containing 10% DMSO. 4 μL of 1.25 nM GK solution may be added to initiate the reaction. The reaction mixture may then be incubated at room temperature for 60 min, and quenched and developed by addition of 10 μL of luciferase reagent. Luminescence intensities of the resulting reaction mixtures may be measured after a 10 min incubation at room temperature. The luminescence intensity may be measured by using the Analyst HT from LJL Biosystems.
pKact and % ACTmax values may be calculated by non-linear curve fitting of the compound concentrations and luminescence intensities to a standard inhibition/activation equation.

Structure (SMILES) | pEC50
O=C(Nc1ncc(F)s1)C(CC1CCCCC1)n1c(=O)[nH]c2ccc(F)cc2c1=O (centres unmarked) [Compound 57, 3-Cyclohexyl-2-(6-fluoro-2,4-dioxo-1,4-dihydro-2H-quinazolin-3-yl)-N-(5-fluoro-thiazol-2-yl)-propionamide] | ≤ 5.70
CNC(=O)c1ccc2c(=O)n(C(CC3CCCCC3)C(=O)Nc3ncc(Cl)s3)cnc2c1 (centres unmarked) [Compound 175, 3-(1-(5-chlorothiazol-2-ylamino)-3-cyclohexyl-1-oxopropan-2-yl)-N-methyl-4-oxo-3,4-dihydroquinazoline-7-carboxamide] | ≥ 6.40
CCOC(=O)CCc1ccc(NC(=O)C(CC2CCCCC2)n2cnc3cc(S(C)(=O)=O)ccc3c2=O)nc1 (centres unmarked) [Compound 76, 3-{6-[3-Cyclohexyl-2-(7-methanesulfonyl-4-oxo-4H-quinazolin-3-yl)-propionylamino]-pyridin-3-yl}-propionic acid ethyl ester] | ≤ 5.70
COc1ccc2ncn(C(CC3CCCCC3)C(=O)Nc3ccc(C(N)=O)cn3)c(=O)c2c1 (centres unmarked) [Compound 167, 6-(3-cyclohexyl-2-(6-methoxy-4-oxoquinazolin-3(4H)-yl)propanamido)nicotinamide] | 6.10 to 6.30
Cn1c(=O)n(C(CC2CCCCC2)C(=O)Nc2nccs2)c(=O)c2cc(Cl)ccc21 (centres unmarked) [Compound 39, 2-(6-chloro-1-methyl-2,4-dioxo-1,2-dihydroquinazolin-3(4H)-yl)-3-cyclohexyl-N-(thiazol-2-yl)propanamide] | ≤ 5.70
O=C(NC1CC1)c1ccc2c(=O)n(C(CC3CCOCC3)C(=O)Nc3ncc(Cl)s3)cnc2c1 (centres unmarked) [Compound 180, 3-(1-(5-chlorothiazol-2-ylamino)-1-oxo-3-(tetrahydro-2H-pyran-4-yl)propan-2-yl)-N-cyclopropyl-4-oxo-3,4-dihydroquinazoline-7-carboxamide] | ≤ 5.70
O=C(Nc1ccc2ccccc2n1)C(CC1CCCCC1)n1cnc2ccc(F)cc2c1=O (centres unmarked) [Compound 195, 3-cyclohexyl-2-(6-fluoro-4-oxoquinazolin-3(4H)-yl)-N-(quinolin-2-yl)propanamide] | 6.10 to 6.30
COC(=O)c1ccc(NC(=O)C(CC2CCCCC2)n2cnc3c(S(C)(=O)=O)csc3c2=O)nc1 (centres unmarked) [Compound 102, Methyl 6-(3-cyclohexyl-2-(7-(methylsulfonyl)-4-oxothieno[3,2-d]pyrimidin-3(4H)-yl)propanamido)nicotinate] | 5.80 to 6.00
O=C(NC1CC1)c1ccc2c(=O)n(C(CC3CCCCC3)C(=O)Nc3ncc(Cl)s3)cnc2c1 (centres unmarked) [Compound 170, 3-(1-(5-chlorothiazol-2-ylamino)-3-cyclohexyl-1-oxopropan-2-yl)-N-cyclopropyl-4-oxo-3,4-dihydroquinazoline-7-carboxamide] | ≥ 6.40
CS(=O)(=O)c1csc2c(=O)n(C(CC3CCCCC3)C(=O)Nc3ccc(Cl)cn3)cnc12 (centres unmarked) [Compound 184, N-(5-chloropyridin-2-yl)-3-cyclohexyl-2-(7-(methylsulfonyl)-4-oxothieno[3,2-d]pyrimidin-3(4H)-yl)propanamide] | 5.80 to 6.00
COC(=O)c1ccc(NC(=O)C(CC2CCCCC2)n2cnc3c(C)cc(Cl)cc3c2=O)nc1 (centres unmarked) [Compound 207, methyl 6-(2-(6-chloro-8-methyl-4-oxoquinazolin-3(4H)-yl)-3-cyclohexylpropanamido)nicotinate] | 5.80 to 6.00
O=C(Nc1nccs1)C(CC1CCCCC1)n1cnc2c(Cl)cccc2c1=O (centres unmarked) [Compound 139, 2-(8-chloro-4-oxoquinazolin-3(4H)-yl)-3-cyclohexyl-N-(thiazol-2-yl)propanamide] | ≤ 5.70
CS(=O)(=O)c1ccc2c(=O)n(C(CC3CCCCC3)C(=O)Nc3ncc(Cl)s3)c(=O)[nH]c2c1 (centres unmarked) [Compound 55, N-(5-Chloro-thiazol-2-yl)-3-cyclohexyl-2-(7-methanesulfonyl-2,4-dioxo-1,4-dihydro-2H-quinazolin-3-yl)-propionamide] | 6.10 to 6.30
O=C(NC1CC1)c1ccc2c(=O)n(C(CC3CCCCC3)C(=O)Nc3ccc(F)cn3)c(=O)[nH]c2c1 (centres unmarked) [Compound 119, 3-(3-cyclohexyl-1-(5-fluoropyridin-2-ylamino)-1-oxopropan-2-yl)-N-cyclopropyl-2,4-dioxo-1,2,3,4-tetrahydroquinazoline-7-carboxamide] | ≤ 5.70
NC(=O)c1ccc(NC(=O)C(CC2CCCCC2)n2cnc3cc(S(=O)(=O)C4CC4)ccc3c2=O)nc1 (centres unmarked) [Compound 91, 6-[3-Cyclohexyl-2-(7-cyclopropanesulfonyl-4-oxo-4H-quinazolin-3-yl)-propionylamino]-nicotinamide] | ≥ 6.40
CN1CCC(CNC(=O)c2ccc3c(=O)n(C(CC4CCCCC4)C(=O)Nc4ncc(Cl)s4)cnc3c2)CC1 (centres unmarked) [Compound 178, 3-(1-(5-chlorothiazol-2-ylamino)-3-cyclohexyl-1-oxopropan-2-yl)-N-((1-methylpiperidin-4-yl)methyl)-4-oxo-3,4-dihydroquinazoline-7-carboxamide] | 5.80 to 6.00
Cc1ccc(NC(=O)C(CC2CCCCC2)n2cnc3c(cnn3C)c2=O)nc1 (centres unmarked) [Compound 110, 3-Cyclohexyl-2-(1-methyl-4-oxo-1H-pyrazolo[3,4-d]pyrimidin-5(4H)-yl)-N-(5-methylpyridin-2-yl)propanamide] | ≤ 5.70
